The values below come from patent publication US11299510B2, “Substituted pyridopyrrolopyrimidine ribonucleosides for therapeutic uses” (USTAV ORGANICKE CHEMIE A BIOCHEMIE AV CR, V.V.I., priority 2018, dated 2022).

What all share (assay type): cell-based
Test [1] deals with HCT116p53−/− (human colorectal cancer, mutant p53). The test is described as follows: cytotoxic MTS test, HCT116p53. The settings on record: HCT116p53 cells. From the text:
(§1) To evaluate the antitumor activity of newly prepared compounds for in vitro conditions, we used cytotoxic MTS test (Nosková V. et al., Neoplasma 2002, 49, 418-425) on cell lines derived from normal tissues or tumors. Specifically, cell lines K562 (human acute myeloid leukemia); K562-Tax (human acute myeloid leukemia, paclitaxel resistant subline, overexpress multiple drug resistant protein PgP); CEM (T-lymfoblastic leukemia); CEM-DNR-bulk (T-lymfoblastic leukemia, doxorubicin resistant); A549 (human lung adenocarcinoma); HCT116p53 wt (human colorectal cancer, wild-type); HCT116p53−/−(human colorectal cancer, mutant p53) a U2OS (human bone osteosarcoma) were used. Express characteristics, susceptibility profiles of classic antitumor drugs as well as methodology of cytotoxic MTS test have been repeatedly published (Denizot, F.; Lang, R., J. Immunol. Meth. 1986, 89, 271-277; Noskova, V., see above; Šarek J. et al., J, Med. Chem., 2003, 46, 5402-5415).

A further test concerns HeLa. The test is described as follows: cytotoxic MTS test, HeLa. The settings on record: Homo sapiens; HeLa cells.
Test [2] deals with HCT116p53 wt (human colorectal cancer, wild-type). The test is described as follows: cytotoxic MTS test, HCT116. The settings on record: HCT-116, HCT116 cells.
Text: as §1

Test [3] has as its system K562 (human acute myeloid leukemia). The test is described as follows: cytotoxic MTS test, K562. The settings on record: K562 cells.
Text: as §1

The subject of a further test is CCRF-CEM. The test is described as follows: cytotoxic MTS test, CCRF-CEM. The settings on record: Homo sapiens; CCRF-CEM cells.
Text: as §1

The subject of test [4] is CEM-DNR-bulk (T-lymfoblastic leukemia, doxorubicin resistant). The test is described as follows: cytotoxic MTS test, CEM-DNR. Conditions: Homo sapiens; CEM-DNR cells.
Text: as §1

A further test has as its system Hep G2. The test is described as follows: cytotoxic MTS test, Hep G2. Conditions: Homo sapiens, HepG2; Hep G2 cells.
In test [5] the test system is K562-Tax (human acute myeloid leukemia, paclitaxel resistant subline). The test is described as follows: cytotoxic MTS test, K562-TAX. Conditions: K562-TAX cells.
Text: as §1

Test [6] relates to CEM (T-lymfoblastic leukemia). The test is described as follows: cytotoxic MTS test, CEM. Conditions: Homo sapiens, CCRF-CEM; CEM cells.
Text: as §1

In test [7] the test system is U2OS (human bone osteosarcoma). The test is described as follows: cytotoxic MTS test, U2OS. Conditions: U2OS cells.
Text: as §1

The test system of test [8] is MRC-5 (normal human fibroblasts). The test is described as follows: cytotoxic MTS test, MRC-5. Conditions: MRC5, MRC-5 cells.
The subject of test [9] is BJ (normal human fibroblasts). The test is described as follows: cytotoxic MTS test, BJ. Conditions: BJ cells.
Test [10] deals with A549 (human lung adenocarcinoma). The test is described as follows: cytotoxic MTS test, A549. Conditions: A549 cells.
Text: as §1

The test system of the next test is HL 60. The test is described as follows: cytotoxic MTS test, HL 60. The settings on record: Homo sapiens; HL 60 cells.

Molecules are shown by their SMILES.

`Nc1ncnc2c1c1ccncc1n2[C@@H]1O[C@H](CO)[C@@H](O)[C@H]1O` [Compound 2c, 4-amino-9-(β-D-ribofuranosyl)-9H-pyrido[4′,3′:4,5]pyrrolo[2,3-d]pyrimidine]: the IC50 in test [1] was 0.2 to 0.9 µM; in the test with HeLa, 0.9 to 10 µM; in test [2], 0.2 to 0.9 µM; in test [3] it was 0.2 to 0.9 µM; in the test on CCRF-CEM it was 0.2 to 0.9 µM; in test [4], 0.9 to 10 µM. In addition, the IC50 is 0.2 to 0.9 µM in the test with Hep G2; 0.9 to 10 µM in test [5]; 0.2 to 0.9 µM in test [6]; 0.2 to 0.9 µM in test [7]; above 50 µM in test [8]; 0.9 to 10 µM in [9]. Also, the 50% inhibitory concentration (IC50) was in the range of 0.9 to 10 µM in test [10] and 0.2 to 0.9 µM with HL 60.
`CN(C)c1ncnc2c1c1ncccc1n2[C@@H]1O[C@H](CO)[C@@H](O)[C@H]1O` [Compound 1e, 4-(dimethylamino)-9-(β-D-ribofuranosyl)-9H-pyrido[2′,3′:4,5]pyrrolo[2,3-d]pyrimidine]: the IC50 (in test [1]; in the test with HeLa; in test [2]; in [3]; with CCRF-CEM; in test [4]) was above 50 µM throughout. The IC50 (with Hep G2; in test [5]; in test [6]; in [7]; in [8]; in test [9]) was above 50 µM throughout. For the same compound, the half-maximal inhibitory concentration (IC50) (in test [10]; with HL 60) was above 50 µM throughout.
In the case of `OC[C@H]1O[C@@H](n2c3cccnc3c3c(-c4cc5ccccc5o4)ncnc32)[C@H](O)[C@@H]1O` [Compound 1i, 4-(benzofuran-2-yl)-9-(β-D-ribofuranosyl)-9H-pyrido[2′,3′:4,5]pyrrolo[2,3-d]pyrimidine], the concentration for half-maximal inhibition (IC50) in test [1] was above 50 µM; in the test on HeLa, above 50 µM; in [2] it was above 50 µM; in test [3] it was above 50 µM; in the test on CCRF-CEM it was 10 to 25 µM; in [4] it was above 50 µM. In addition, the IC50 (with Hep G2; in test [5]; in test [6]; in [7]; in [8]; in test [9]) was above 50 µM in each case. Moreover, the concentration for half-maximal inhibition (IC50) (in test [10]; in the test on HL 60) was above 50 µM each time.
Take `CSc1ncnc2c1c1ccncc1n2[C@@H]1O[C@H](CO)[C@@H](O)[C@H]1O` [Compound 2b, 4-(methylsulfanyl)-9-(β-D-ribofuranosyl)-9H-pyrido[4′,3′:4,5]pyrrolo[2,3-d]pyrimidine]: the IC50 in test [1] was in the range of 0.2 to 0.9 µM; in the test on HeLa, 0.9 to 10 µM; in test [2], 0.2 to 0.9 µM; in [3], 0.2 to 0.9 µM; in the test on CCRF-CEM, 0.2 to 0.9 µM; in test [4], 0.9 to 10 µM. Further, the concentration for half-maximal inhibition (IC50) in the test with Hep G2 is 0.9 to 10 µM; in test [5] it was 0.9 to 10 µM; in test [6] it was 0.2 to 0.9 µM; in test [7], 0.2 to 0.9 µM; in [8] it was above 50 µM; in test [9], above 50 µM. Further, the IC50 in test [10] fell in the range of 10 to 25 µM; in the test on HL 60, 0.2 to 0.9 µM.
As to `CN(C)c1ncnc2c1c1ccncc1n2[C@@H]1O[C@H](CO)[C@@H](O)[C@H]1O` [Compound 2e, 4-(dimethylamino)-9-(β-D-ribofuranosyl)-9H-pyrido[4′,3′:4,5]pyrrolo[2,3-d]pyrimidine], the half-inhibitory concentration (IC50) (in test [1]; in the test with HeLa; in test [2]; in test [3]; in the test with CCRF-CEM; in test [4]) was above 50 µM throughout. In addition, the IC50 (with Hep G2; in test [5]; in test [6]; in [7]; in test [8]; in test [9]) was above 50 µM throughout. For the same compound, the IC50 (in test [10]; in the test on HL 60) was above 50 µM each time.
On to `CSc1ncnc2c1c1ncccc1n2[C@@H]1O[C@H](CO)[C@@H](O)[C@H]1O` [Compound 1b, 4-(methylsulfanyl)-9-(β-D-ribofuranosyl)-9H-pyrido[2′,3′:4,5]pyrrolo[2,3-d]pyrimidine], for which the 50% inhibitory concentration (IC50) (in test [1]; with HeLa; in [2]; in test [3]; in the test with CCRF-CEM; in [4]) was above 50 µM each time. Also, the concentration for half-maximal inhibition (IC50) (in the test with Hep G2; in test [5]; in test [6]; in [7]; in [8]; in [9]) was above 50 µM in each case. Moreover, the IC50 (in [10]; in the test on HL 60) was above 50 µM in each case.
Turning to `OC[C@H]1O[C@@H](n2c3cccnc3c3c(-c4ccsc4)ncnc32)[C@H](O)[C@@H]1O` [Compound 1h, 4-(thiophen-3-yl)-9-(β-D-ribofuranosyl)-9H-pyrido[2′,3′:4,5]pyrrolo[2,3-d]pyrimidine], the concentration for half-maximal inhibition (IC50) (in [1]; with HeLa; in test [2]; in test [3]; with CCRF-CEM; in test [4]) was above 50 µM throughout. For the same compound, the IC50 (with Hep G2; in test [5]; in [6]; in test [7]; in [8]; in [9]) was above 50 µM each time. The concentration for half-maximal inhibition (IC50) (in [10]; in the test with HL 60) was above 50 µM in each case.
